Reference: publication PMC8003314, “Design and Synthesis of Ranitidine Analogs as Multi-Target Directed Ligands for the Treatment of Alzheimer’s Disease” (International Journal of Molecular Sciences, 2021)

Legend:
Aβ40 = target: T1, Aβ40 (Homo sapiens, UniProt P05067); experiment: ThT fluorescence assay of Aβ monomer aggregation; type: biochemical; conditions: 40 μM Aβ40 monomer, mean ± SEM, n = 3–5, N.E. = not significantly different from control samples; for Lag Time Extension (Fold Increase) / Plateau Reduction (% Inhibition): 100 µM compound; for Lag Time Extension (Fold Increase): T2/T1 relative to control; for inhibition at 100 µM: pH 8, 100 µM compound, read-out: Plateau Reduction (% Inhibition); for inhibition at 100 µM / Plateau Reduction (% Inhibition): 40 mM Tris-HCl pH 8.0, 25 °C
T1 construct: purchased AnaSpec; host or cells: synthetic peptide
T1 sequence (P05067 672-711 limits assumed): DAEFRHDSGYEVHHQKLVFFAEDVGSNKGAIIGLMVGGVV
From the text: Synthetic Aβ40 was used in this study because it is the predominant isoform found in amyloid plaques isolated from AD brain [12]. Thioflavin T (ThT), a fluorescent compound that binds specifically to amyloid β-sheet structures to yield a shifted, enhanced florescence, was used to monitor the appearance of aggregates. […] The inhibitory effect of compounds on Aβ aggregation was evidenced as a reduction in the equilibrium plateau and/or an increase in the lag time. The plateau reduction (Figure 2A), which indicates inhibition that reduces the extent of Aβ aggregation, was defined as the percentage decrease of the plateau ThT fluorescence in the presence of inhibitor, P2, compared to the plateau ThT fluorescence in the absence of inhibitor, P1.
Lyophilized Aβ peptide was reconstituted in 50 mM NaOH at a concentration of 2 mg/mL and purified via size-exclusion chromatography (SEC) on a Superdex 75 HR 10/300 column (Cytiva, Marlborough, MA) using a running buffer of 40 mM Tris-HCl (pH 8.0). Bovine serum albumin (BSA) (2 mg/mL) was employed as a pretreatment to reduce nonspecific Aβ interaction with the dextran matrix of the column. […] The concentrations of eluted Aβ monomer fractions were determined with a calculated extinction coefficient of 1450 M^−1 cm^−1 at 276 nm. Purified Aβ monomer samples were used fresh or stored at 4 ℃ for up to 4 days.
All compounds were dissolved in DMSO at 5 mM and stored at −20 °C. […] DMSO (2% v/v) was added to control reactions run in parallel.
SEC-purified Aβ monomer was diluted to 40 μM in 40 mM Tris-HCl (pH 8.0) and agitated (vortex, 800 rpm, 25 °C) without (control) or with 100 µM ranitidine analogs. Periodically, a 20-μL aliquot was removed and combined with 140 μL of 10 μM ThT. Fluorescence (excitation = 450 nm, emission = 470–500 nm) was evaluated using a Perkin-Elmer LS-45 luminescence spectrometer (Waltham, MA, USA). Fluorescence values were calculated as the integrated area under the emission curve with baseline (ThT alone) subtraction and plotted vs. aggregation time. Each compound was evaluated using at least three independent experiments.
Figure 2 Assessment of the inhibition of Aβ monomer aggregation. Monomer aggregation assays were conducted in the absence (solid line, control) and presence (dotted line, experimental) of the ranitidine analogs, and aggregate formation was monitored as an increase in the ThT fluorescence. (A) Inhibition that decreases the quantity of aggregates formed at equilibrium is reported as the plateau reduction, the percentage decrease of the plateau ThT fluorescence in the presence of inhibitor, P2, compared to the plateau for the control, P1. (B) Inhibition that extends the time to aggregate formation is reported as the lag time extension. It is evidenced as an increase in the experimental lag time, T2, relative to the lag time for the control, T1, and evaluated as a fold increase relative to the control, T2/T1.

electric eel AChE = target: T2, electric eel AChE (Electrophorus electricus, UniProt O42275); experiment: AChE inhibition assay (modified Ellman method); type: biochemical; conditions: 0.1 M sodium phosphate pH 8.0, 37 °C, 200 µM acetylthiocholine
T2 construct: purchased Sigma (Sigma-Aldrich, St. Louis, MO, USA)
T2 sequence (O42275 24-633): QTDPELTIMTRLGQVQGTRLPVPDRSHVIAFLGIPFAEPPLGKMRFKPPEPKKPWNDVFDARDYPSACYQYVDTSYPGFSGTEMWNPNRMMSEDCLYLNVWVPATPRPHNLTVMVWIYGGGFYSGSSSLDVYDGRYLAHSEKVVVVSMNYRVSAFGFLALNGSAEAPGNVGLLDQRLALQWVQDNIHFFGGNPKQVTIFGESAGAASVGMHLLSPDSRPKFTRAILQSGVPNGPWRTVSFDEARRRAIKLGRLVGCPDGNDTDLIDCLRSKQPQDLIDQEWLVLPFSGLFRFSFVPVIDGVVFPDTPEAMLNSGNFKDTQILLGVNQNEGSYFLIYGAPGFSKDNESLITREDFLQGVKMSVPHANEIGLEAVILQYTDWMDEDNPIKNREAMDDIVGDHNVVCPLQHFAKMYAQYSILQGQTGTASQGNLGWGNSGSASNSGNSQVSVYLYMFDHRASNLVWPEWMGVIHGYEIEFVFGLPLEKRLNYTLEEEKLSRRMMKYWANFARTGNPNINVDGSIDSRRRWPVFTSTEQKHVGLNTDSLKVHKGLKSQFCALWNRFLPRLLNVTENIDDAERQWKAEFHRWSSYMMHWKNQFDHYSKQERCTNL
Experimental: Aβ40 was purchased from AnaSpec (AnaSpec, Fremont, CA, USA) and stored in lyophilized form at −20 °C. Thioflavin T (ThT) and electric eel AChE were obtained from Sigma (Sigma-Aldrich, St. Louis, MO, USA). Bovine serum albumin (BSA) and dimethyl sulfoxide (DMSO) were purchased from EMD Biosciences (EMD Biosciences, San Diego, CA, USA). Tris-HCl (pH 8.0) was prepared using Tris base, purchased from Promega (Promega, Madison, WI, USA) and Tris hydrochloride, purchased from EMD (EMD, Burlington, MA, USA).
The AChE inhibition assay was modified based on the method of Ellman et al. in a 24-well plate format at 37 °C. Assays were performed in 0.1 M sodium phosphate (pH 8.0), containing 200 µM acetylthiocholine, 100 µM dithiobisnitrobenzoic acid, and 0.005 units of AChE in a final volume of 3000 µL. The reaction was initiated by the addition of acetylthiocholine, and the formation of a product was monitored by measuring absorbance at 412 nm. The IC50 values were determined by nonlinear regression analysis of the concentration–response curves generated. Each compound was evaluated using at least three independent experiments.

AChE = system: AChE; design: method as in PMID 27769620; conditions: previous study; cited from earlier work

Row | Compound | Lag Time Extension (Fold Increase) (Aβ40) | inhibition at 100 µM (Aβ40) [%] | IC50 (electric eel AChE) [µM] | Plateau Reduction (% Inhibition) (Aβ40) | IC50 (AChE) [nM]
1 | O=C1c2cccc3cc([N+](=O)[O-])cc(c23)C(=O)N1CCc1ccco1 [Compound 11, 2-(2-(furan-2-yl)ethyl)-5-nitro-1H-benzo[de]isoquinoline-1,3(2H)-dione] | 1.76 ± 0.61 fold | 60.3 | – | – | –
2 | CN(C)Cc1ccc(CSCCN2C(=O)c3cccc4cccc(c34)C2=O)o1 [Compound 3] | lost and N.E. | 60.9 | – | – | –
3 | CN(C)Cc1ccc(CCN2C(=O)c3cccc4cc([N+](=O)[O-])cc(c34)C2=O)o1 [Compound 12, 2-(2-(5-((Dimethylamino)methyl)furan-2-yl)ethyl)-5-nitro-1H-benzo[de]isoquino line-1,3(2H)-dione] | 2.25 ± 0.25 fold | 65.6 | 0.36 | – | –
4 | CC1CC(=O)N(CCSCc2ccc(CN(C)C)o2)C1=O (centres unmarked) [Compound 1] | 2.8 ± 0.6 fold | – | – | N.E. | –
5 | CN(C)Cc1ccc(CSCCN2C(=O)c3ccc([N+](=O)[O-])cc3C2=O)o1 [Compound 5] | 2.0 ± 0.6 fold | 39.1 | – | – | –
6 | 2-(2-(Methylthio)ethyl)-5-nitro-1H-benzo[de]isoquinoline-1,3(2H)-dione [Compound 7] | N.E. | – | – | abrogated and N.E. | –
7 | CN(C)Cc1ccc(CSCCN2C(=O)c3cccc4c(Cl)ccc(c34)C2=O)o1 [Compound 8, 6-Chloro-2-(2-(((5-((dimethylamino)methyl)furan-2-yl)methyl)thio)ethyl)-1H-benzo [de]isoquinoline-1,3(2H)-dione] | N.E. | 65.8 | 1.23 | – | –
8 | C[N+](C)([O-])Cc1ccc(CS(=O)(=O)CCN2C(=O)c3cccc4cc([N+](=O)[O-])cc(c34)C2=O)o1 [Compound 15, N,N-Dimethyl-1-(5-(((2-(5-nitro-1,3-dioxo-1H-benzo[de]isoquinolin-2(3H)-yl)ethyl)sulfonyl)methyl)furan-2-yl)methanamine oxide] | N.E. | 20.4 | – | – | –
9 | CN(C)Cc1ccc(C[S+]([O-])CCN2C(=O)c3cccc4cccc(c34)C2=O)o1 (centres unmarked) [Compound 14, 2-(2-(((5-((Dimethylamino)methyl)furan-2-yl)methyl)sulfinyl)ethyl)-1H-benzo[de] isoquinoline-1,3(2H)-dione] | N.E. | 20.1 | – | – | –
10 | CN(C)Cc1ccc(CSCCN2C(=O)c3cccc4cc([N+](=O)[O-])cc(c34)C2=O)o1 [Compound 6] | N.E. | 71.8 | – | – | 150
11 | CN(C)Cc1ccc(C[S+]([O-])CCN2C(=O)c3cccc4cc([N+](=O)[O-])cc(c34)C2=O)o1 (centres unmarked) [Compound 13, 2-(2-(((5-((Dimethylamino)methyl)furan-2-yl)methyl)sulfinyl)ethyl)-5-nitro-1H-benzo[de]isoquinoline-1,3(2H)-dione] | N.E. | 26.8 | – | – | –
12 | CN(C)Cc1ccc(CSCCN2C(=O)c3ccccc3C2=O)o1 [Compound 2] | lost and N.E. | – | – | N.E. | –
13 | CN(C)Cc1nc(CSCCN2C(=O)c3cccc4cc([N+](=O)[O-])cc(c34)C2=O)cs1 [Compound 10, 2-(2-(((2-((Dimethylamino)methyl)thiazol-4-yl)methyl)thio)ethyl)-5-nitro-1H-benzo[de]isoquinoline-1,3(2H)-dione] | N.E. | 54.2 | 0.52 | 61.4% ± 19.7% | –
14 | CN(C)Cc1nc(CSCCN2C(=O)c3cccc4cccc(c34)C2=O)cs1 [Compound 9, 2-(2-((2-((Dimethylamino)methyl)thiazol-4-yl)methylthio)ethyl)-1H-benzo[de]iso quinoline-1,3(2H)-dione] | N.E. | 61.4 | 2.02 | 54.2% ± 5.1% | –
